# Reference: patent US20220323406A1, “METHODS AND COMPOSITIONS FOR DIFFERENTIATING STEM CELLS” (Massachusetts Institute of Technology, priority 2019, published 2022)
# Structures can show the parent of a compound that is named as a salt.
# What was measured:
# [1] = tested on: ENR+CD organoids (ISC to Paneth cell differentiation); assay: Primary screen: basal (non-stimulated) lysozyme secretion LYZ.NS, 2.5-D 384-well ENR+CD organoid differentiation; assay type: cell-based, mouse
# Excerpt: (§1) High-throughput screening.
# ENR+CD organoids = assay: Primary screen: ATP (CellTiter-Glo 3D, CTG) cell number/viability, 2.5-D 384-well ENR+CD organoids;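 further: compounds given at plating and again on day 3 over a 6-day differentiation from ENR+CV stem-cell-enriched precursors, ATP measured on day 6, plate median as control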
# [2] = tested on: ENR+CD organoids (ISC to Paneth cell differentiation); assay: Primary screen: CCh-stimulated lysozyme secretion LYZ.S, 2.5-D 384-well ENR+CD organoid differentiation; assay type: cell-based, mouse; settings: primary screen
# Excerpt: as §1
# [3] = primary screen, dose 0.08 uM, FC relative to plate median
# [4] = primary screen, dose 0.08 uM, standard z score
# [5] = primary screen, dose 0.40 uM, FC relative to plate median
# [6] = primary screen, dose 0.40 uM, standard z score
# [7] = primary screen, dose 2.00 uM, FC relative to plate median
# [8] = primary screen, dose 2.00 uM, standard z score
# [9] = primary screen, dose 10.00 uM, FC relative to plate median
# [10] = primary screen, dose 10.00 uM, standard z score
# [11] = dose 0.08 uM, FC relative to plate median
# [12] = dose 0.40 uM, FC relative to plate median
# [13] = dose 2.00 uM, FC relative to plate median
# [14] = dose 10.00 uM, FC relative to plate median
# [15] = primary screen; dose 0.08 uM; FC vs plate median
# [16] = primary screen; dose 0.40 uM; FC vs plate median
# [17] = primary screen; dose 2.00 uM; FC vs plate median
# [18] = primary screen; dose 10.00 uM; FC vs plate median
# [19] = dose 0.08 uM, FC vs plate median
# [20] = dose 0.40 uM, FC vs plate median
# [21] = dose 2.00 uM, FC vs plate median
# [22] = dose 10.00 uM, FC vs plate median
# [23] = primary screen, standard z score, dose 0.08 uM
# [24] = primary screen, standard z score, dose 0.40 uM
# [25] = primary screen, standard z score, dose 2.00 uM
# [26] = primary screen, standard z score, dose 10.00 uM
Compound,"Z.LYZ.NS (standard z score) ([1]; primary screen, dose 0.08 uM)","Z.LYZ.NS (standard z score) ([1]; primary screen, dose 0.40 uM)","Z.LYZ.NS (standard z score) ([1]; primary screen, dose 2.00 uM)","Z.LYZ.NS (standard z score) ([1]; primary screen, dose 10.00 uM)","Z.CTG (standard z score) (ENR+CD organoids; primary screen, dose 0.08 uM)","Z.CTG (standard z score) (ENR+CD organoids; primary screen, dose 0.40 uM)","Z.CTG (standard z score) (ENR+CD organoids; primary screen, dose 2.00 uM)","Z.CTG (standard z score) (ENR+CD organoids; primary screen, dose 10.00 uM)","Dose.FC.LYZ.NS ([1]; primary screen, dose 0.08 uM) [log2 fold change]","Dose.FC.LYZ.NS ([1]; primary screen, dose 0.40 uM) [log2 fold change]","Dose.FC.LYZ.NS ([1]; primary screen, dose 2.00 uM) [log2 fold change]","Dose.FC.LYZ.NS ([1]; primary screen, dose 10.00 uM) [log2 fold change]","Dose.FC.CTG (ENR+CD organoids; primary screen, dose 0.08 uM) [log2 fold change]","Dose.FC.CTG (ENR+CD organoids; primary screen, dose 0.40 uM) [log2 fold change]","Dose.FC.CTG (ENR+CD organoids; primary screen, dose 2.00 uM) [log2 fold change]","Dose.FC.CTG (ENR+CD organoids; primary screen, dose 10.00 uM) [log2 fold change]",Dose.FC.LYZ.S ([2]; dose 0.08 uM) [log2 fold change],Dose.FC.LYZ.S ([2]; dose 0.40 uM) [log2 fold change],Dose.FC.LYZ.S ([2]; dose 2.00 uM) [log2 fold change],Dose.FC.LYZ.S ([2]; dose 10.00 uM) [log2 fold change],further results
CC1=C(C(=O)Nc2cc3cn[nH]c3cc2F)C(c2ccc(C(F)(F)F)cc2)CC(=O)N1 (centres unmarked) [GSK429286A],1.197,1.117,1.222,0.517,1.260,1.302,1.166,0.883,–,–,–,–,–,–,–,–,–,–,–,–,"Dose.FC.LYZ.NS (log2 fold change) ([1]; primary screen, dose 0.08 uM): 0.137; Dose.FC.LYZ.NS (log2 fold change) ([1]; primary screen, dose 0.40 uM): 0.128; Dose.FC.LYZ.NS (log2 fold change) ([1]; primary screen, dose 2.00 uM): 0.140; Dose.FC.LYZ.NS (log2 fold change) ([1]; primary screen, dose 10.00 uM): 0.059; Dose.FC.CTG (log2 fold change) (ENR+CD organoids; primary screen, dose 0.08 uM): 0.527; Dose.FC.CTG (log2 fold change) (ENR+CD organoids; primary screen, dose 0.40 uM): 0.545; Dose.FC.CTG (log2 fold change) (ENR+CD organoids; primary screen, dose 2.00 uM): 0.488; Dose.FC.CTG (log2 fold change) (ENR+CD organoids; primary screen, dose 10.00 uM): 0.370; Dose.FC.LYZ.S (log2 fold change) ([2]; dose 0.08 uM): 0.247; Dose.FC.LYZ.S (log2 fold change) ([2]; dose 0.40 uM): 0.283; Dose.FC.LYZ.S (log2 fold change) ([2]; dose 2.00 uM): 0.245; Dose.FC.LYZ.S (log2 fold change) ([2]; dose 10.00 uM): 0.099"
O=C(Nc1cccc(C(F)(F)F)c1)Nc1cc(S(=O)(=O)NC2CC2)ccc1-c1ccsc1 [AGI-6780],0.597,0.268,0.374,−0.785,0.671,0.551,0.713,0.256,0.069,0.031,0.043,−0.090,0.281,0.231,0.298,0.107,0.095,0.156,0.055,−0.054,–
O=c1ncn2nc(Sc3ccc(F)cc3F)ccc2c1-c1c(Cl)cccc1Cl [VX-745],0.805,0.031,0.186,−0.049,–,–,–,–,0.092,0.004,0.021,−0.006,0.186,0.146,0.018,0.022,0.154,0.054,0.058,0.038,–
CN[C@H]1CC[C@@H](c2ccc(Cl)c(Cl)c2)c2ccccc21 [Sertraline HCl],–,–,–,–,–,–,–,–,–,–,–,–,–,–,–,–,–,–,–,–,"Dose.FC.LYZ.NS [1, 3]: −0.026 log2 fold change; Z.LYZ.NS [1, 4]: −0.227; Dose.FC.LYZ.NS [1, 5]: −0.082 log2 fold change; Z.LYZ.NS [1, 6]: −0.714; Dose.FC.LYZ.NS [1, 7]: 0.052 log2 fold change; Z.LYZ.NS [1, 8]: 0.450; Dose.FC.LYZ.NS [1, 9]: −0.005 log2 fold change; Z.LYZ.NS [1, 10]: −0.044; Dose.FC.CTG (ENR+CD organoids; [3]): −0.079 log2 fold change; Dose.FC.CTG (ENR+CD organoids; [5]): 0.087 log2 fold change; Dose.FC.CTG (ENR+CD organoids; [7]): 0.066 log2 fold change; Dose.FC.CTG (ENR+CD organoids; [9]): 0.043 log2 fold change; Dose.FC.LYZ.S [2, 11]: −0.048 log2 fold change; Dose.FC.LYZ.S [2, 12]: −0.076 log2 fold change; Dose.FC.LYZ.S [2, 13]: 0.023 log2 fold change; Dose.FC.LYZ.S [2, 14]: −0.021 log2 fold change"
COc1cc2ncnc(Nc3ccc(Cl)cc3F)c2cc1OC [ZM 306416],0.912,−1.942,−2.531,−2.395,−0.190,−1.155,−3.135,−3.559,0.105,−0.223,−0.291,−0.275,−0.080,−0.483,−1.312,−1.490,0.006,−0.288,−0.403,−0.431,–
CCCC(C)NC(=O)c1ccc(Cl)c(Cl)c1 (centres unmarked) [NSC 405020],–,–,–,–,–,–,–,–,–,–,–,–,–,–,–,–,–,–,–,–,"Z.LYZ.NS [1, 4]: 0.071; Z.LYZ.NS [1, 6]: −0.246; Z.LYZ.NS [1, 8]: 0.160; Z.LYZ.NS [1, 10]: −0.570; Dose.FC.LYZ.NS [1, 15]: 0.008 log2 fold change; Dose.FC.LYZ.NS [1, 16]: −0.028 log2 fold change; Dose.FC.LYZ.NS [1, 17]: 0.018 log2 fold change; Dose.FC.LYZ.NS [1, 18]: −0.065 log2 fold change; Z.CTG (ENR+CD organoids; [4]): −0.140; Z.CTG (ENR+CD organoids; [6]): −0.170; Z.CTG (ENR+CD organoids; [8]): −0.141; Z.CTG (ENR+CD organoids; [10]): −0.138; Dose.FC.CTG (ENR+CD organoids; [15]): −0.059 log2 fold change; Dose.FC.CTG (ENR+CD organoids; [16]): −0.071 log2 fold change; Dose.FC.CTG (ENR+CD organoids; [17]): −0.059 log2 fold change; Dose.FC.CTG (ENR+CD organoids; [18]): −0.058 log2 fold change; Dose.FC.LYZ.S [2, 19]: 0.014 log2 fold change; Dose.FC.LYZ.S [2, 20]: 0.093 log2 fold change; Dose.FC.LYZ.S [2, 21]: 0.002 log2 fold change; Dose.FC.LYZ.S [2, 22]: −0.061 log2 fold change"
O=C(NOC[C@H](O)CO)c1ccc(F)c(F)c1Nc1ccc(I)cc1F [PD0325901],–,–,–,–,–,–,–,–,–,–,–,–,–,–,–,–,–,–,–,–,"Z.LYZ.NS [1, 4]: −1.046; Z.LYZ.NS [1, 6]: −1.064; Z.LYZ.NS [1, 8]: −1.215; Z.LYZ.NS [1, 10]: −1.625; Dose.FC.LYZ.NS [1, 15]: −0.120 log2 fold change; Dose.FC.LYZ.NS [1, 16]: −0.122 log2 fold change; Dose.FC.LYZ.NS [1, 17]: −0.139 log2 fold change; Dose.FC.LYZ.NS [1, 18]: −0.187 log2 fold change; Dose.FC.CTG (ENR+CD organoids; [15]): −0.502 log2 fold change; Dose.FC.CTG (ENR+CD organoids; [16]): −1.155 log2 fold change; Dose.FC.CTG (ENR+CD organoids; [17]): −0.867 log2 fold change; Dose.FC.CTG (ENR+CD organoids; [18]): −0.963 log2 fold change; Dose.FC.LYZ.S [2, 19]: −0.212 log2 fold change; Dose.FC.LYZ.S [2, 20]: −0.219 log2 fold change; Dose.FC.LYZ.S [2, 21]: −0.227 log2 fold change; Dose.FC.LYZ.S [2, 22]: −0.269 log2 fold change"
O=C(c1cncc(Br)c1)N1CCC(N2CCCC2)CC1 [UNC669],0.578,−0.048,0.606,0.249,−0.226,0.228,−0.561,0.174,0.066,−0.006,0.070,0.029,−0.095,0.096,−0.235,0.073,0.047,−0.029,0.025,0.002,–
CN(C)C(=O)[C@H](O)[C@H](Cc1ccccc1)NC(=O)c1cc2cc(Cl)ccc2[nH]1 [CP-91149],–,–,–,–,–,–,–,–,0.177,−0.033,0.028,−0.057,0.031,−0.023,−0.098,−0.100,0.186,0.055,−0.121,−0.097,"Z.LYZ.NS [1, 23]: 1.538; Z.LYZ.NS [1, 24]: −0.289; Z.LYZ.NS [1, 25]: 0.245; Z.LYZ.NS [1, 26]: −0.498; Z.CTG (ENR+CD organoids; [23]): 0.073; Z.CTG (ENR+CD organoids; [24]): −0.056; Z.CTG (ENR+CD organoids; [25]): −0.234; Z.CTG (ENR+CD organoids; [26]): −0.239"
O=C(NCc1cccc(O)c1)Nc1nc(-c2ccncc2)cs1 [RKI-1447],–,–,–,–,–,–,–,–,–,–,–,–,–,–,–,–,–,–,–,–,"Dose.FC.LYZ.NS [1, 3]: −0.006 log2 fold change; Z.LYZ.NS [1, 4]: −0.055; Dose.FC.LYZ.NS [1, 5]: −0.092 log2 fold change; Z.LYZ.NS [1, 6]: −0.803; Dose.FC.LYZ.NS [1, 7]: −0.009 log2 fold change; Z.LYZ.NS [1, 8]: −0.077; Dose.FC.LYZ.NS [1, 9]: −0.183 log2 fold change; Z.LYZ.NS [1, 10]: −1.594; Dose.FC.CTG (ENR+CD organoids; [3]): −0.397 log2 fold change; Z.CTG (ENR+CD organoids; [4]): −0.948; Dose.FC.CTG (ENR+CD organoids; [5]): −0.184 log2 fold change; Z.CTG (ENR+CD organoids; [6]): −0.441; Dose.FC.CTG (ENR+CD organoids; [7]): −0.226 log2 fold change; Z.CTG (ENR+CD organoids; [8]): −0.540; Dose.FC.CTG (ENR+CD organoids; [9]): −0.342 log2 fold change; Z.CTG (ENR+CD organoids; [10]): −0.816; Dose.FC.LYZ.S [2, 11]: −0.056 log2 fold change; Dose.FC.LYZ.S [2, 12]: −0.064 log2 fold change; Dose.FC.LYZ.S [2, 13]: −0.017 log2 fold change; Dose.FC.LYZ.S [2, 14]: −0.297 log2 fold change"
